Active and inactive are the calls of the source.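 The calls were made as follows: active = at least two of three replicate dose series yielding a converging curve fit, whether well or thinly supported; inactive = the rest.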
molecular target: D(1A) dopamine receptor (Homo sapiens) (UniProt P21728); assay: concentration-dependent D1 reporter signal change – cell-based, CRE-luciferase, HEK293, dopamine EC30, D1 allosteric modulator project, dose response (AID 858);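 also: HEK 293 cells bearing human D1 receptor stimulated by dopamine at its EC30; luciferase light from a cAMP response element reporter gene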
Sequence (P21728 whole entry, looked up): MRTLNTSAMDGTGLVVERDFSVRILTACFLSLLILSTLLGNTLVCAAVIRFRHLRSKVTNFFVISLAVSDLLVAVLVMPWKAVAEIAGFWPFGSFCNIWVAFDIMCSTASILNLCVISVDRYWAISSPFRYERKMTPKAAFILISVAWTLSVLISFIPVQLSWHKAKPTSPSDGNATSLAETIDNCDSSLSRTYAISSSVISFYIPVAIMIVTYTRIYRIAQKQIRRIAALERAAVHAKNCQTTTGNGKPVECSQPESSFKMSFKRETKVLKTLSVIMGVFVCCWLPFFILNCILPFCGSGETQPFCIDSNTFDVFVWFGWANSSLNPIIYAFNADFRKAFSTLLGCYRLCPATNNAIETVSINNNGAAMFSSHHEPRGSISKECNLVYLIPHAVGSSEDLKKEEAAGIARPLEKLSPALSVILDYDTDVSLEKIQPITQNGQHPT

SMILES | outcome | EC50 [µM]
Nc1nonc1-n1nnc(C(=O)c2ccccc2)c1-c1ccccc1 | inactive | –
Clc1ccccc1-c1nn2c(-c3ccncc3)nnc2s1 | inactive | –
CCn1cc(C(=O)NCC2COc3ccccc3O2)c2cc(OC)c(OC)cc2c1=O (configuration not stated) | inactive | –
Cc1ccc(Cn2c(-n3nc(C)cc3C)nc3c2c(=O)[nH]c(=O)n3C)cc1 | inactive | –
CC1(C)CC(=O)C2=C(C1)OC(N)=C(C#N)C2c1cccc(OC(=O)c2ccco2)c1 (configuration not stated) | inactive | –
Cc1cc(NCCCn2ccnc2)n2c(nc3ccccc32)c1C#N | inactive | –
O=C(NCc1ccco1)c1cnn2c(C(F)(F)F)cc(-c3ccco3)nc12 | inactive | –
Cn1c(=O)c2c(nc(SCCCC#N)n2Cc2ccccc2F)n(C)c1=O | inactive | –
CCOC(=O)C1CCCN(C(=O)c2cc(Cl)ccc2Cl)C1 (configuration not stated) | inactive | –
Cn1c(SCc2ccon2)nc2ccccc2c1=O | inactive | –
CCOC(=O)c1nc(-c2ccccc2)oc1N(C)C | inactive | –
Cc1nc(-c2ccc(S(=O)(=O)N3CCCCCC3)cc2)cs1 | inactive | –
CCOC(=O)N1CCC(N2Cc3cccc(C(=O)NC(C)c4ccc5c(c4)OCCO5)c3C2=O)CC1 (configuration not stated) | inactive | –
CCOC(=O)C(C)Oc1cccc2c(=O)n(CC(=O)NCc3ccco3)ccc12 (configuration not stated) | inactive | –
COc1ccc(-c2noc(CCN3C(=O)c4ccccc4C3=O)n2)cc1OC | – | 0.309
CCC(Sc1nc(=O)cc(N)n1CCc1ccccc1)C(=O)Nc1ccccc1C#N (configuration not stated) | inactive | –
CC(C)Cn1c(=O)c(C(=O)Nc2cnccn2)c(O)c2ccccc21 | inactive | –
Cc1cccc(C2CC(c3ccc(F)cc3)Nc3nc(N)nn32)c1 (configuration not stated) | inactive | –
O=C(c1ccco1)N1CCN(S(=O)(=O)c2ccc3c(c2)CCN3C(=O)C2CC2)CC1 | inactive | –
Cc1[nH]n(-c2ccccc2)c(=O)c1S(=O)(=O)c1ccccc1 | inactive | –
CCOc1ccc(N/C(SC)=C(/C#N)C(N)=O)cc1 | inactive | –

SMILES | outcome | EC50 [µM]
Cc1cc(C)nc(SCC(=O)N2CCCCC2)n1 | inactive | –
COc1ccc(CCN2CCCn3c2nc2c3c(=O)n(Cc3ccccc3F)c(=O)n2C)cc1OC | inactive | –
C=CCn1c(=S)[nH]c2nc3c(cc2c1=O)CCCC3 | inactive | –
C=CCNC(=O)C1CC(c2cccc(OC)c2)=NO1 (configuration not stated) | inactive | –
COc1ccc(CCN(C)C(=O)C2CCCN(Cc3ccc(OC)c(OC)c3)C2)cc1OC (configuration not stated) | inactive | –
CCCC(=O)Nc1ccc(NC(=O)C2CC2)cn1 | – | 0.0224
CCCCNC(=O)c1cc(-c2ccc(OC)c(OC)c2)on1 | inactive | –
Cc1noc(C)c1CSc1ncnc2ccccc12 | inactive | –
COC(=O)c1ccc(CSc2nc3c(cnn3-c3ccc(F)cc3)c(=O)[nH]2)o1 | – | 2.49
C/C(CCc1oc2ccccc2c1-c1ccc(C)o1)=N/O | inactive | –
COc1ccc(OC)c(C(=O)COC(=O)C2CC3CCCC(C2)C3=O)c1 (configuration not stated) | inactive | –
CCC1(CC)C(=O)NC(=NCCc2c[nH]c3ccccc23)NC1=O | inactive | –
Cc1nc2ccc(CCO)cc2s1 | inactive | –
Cc1cc(C)nc(SCC(=O)Nc2ncc3c(n2)CC(C)(C)CC3=O)n1 | inactive | –
O=c1n(Cc2ccccc2)c2cc(Cl)cnc2n1Cc1ccccc1 | inactive | –
Cc1sc2ncnc(SCC(=O)N3CCCC3)c2c1C | inactive | –
CCn1c(=O)c2cc(S(=O)(=O)NC3CCCCC3)ccc2n(CC)c1=O | inactive | –
CCOc1ccccc1C1CC(c2ccccc2)Nc2nc(N)nn21 (configuration not stated) | inactive | –
CCCCSc1nc2c(c(=O)n1CC)SC(C)C2 (configuration not stated) | inactive | –
c1ccc(Nc2nc3ccccc3n3cnnc23)cc1 | inactive | –
c1ccc2c(c1)nc(NCC1CCCO1)c1nnnn12 (configuration not stated) | inactive | –

SMILES | outcome | EC50 [µM]
CC(C)OC(=O)CSc1nnc(-c2cnccn2)n1-c1ccccc1 | inactive | –
CC(C)Sc1nc2c(c(=O)n1C)SC(C)C2 (configuration not stated) | inactive | –
O=C(CCCc1nc2ccccc2s1)N1CCN(S(=O)(=O)c2cccs2)CC1 | inactive | –
O=C(NCc1cccs1)C1CC(c2ccccc2O)=NO1 (configuration not stated) | inactive | –
CCCCNC(=O)c1ccc2nc(-c3ccco3)c(-c3ccco3)nc2c1 | inactive | –
Fc1ccc(-c2cc(C(F)(F)F)nc(-n3cncn3)n2)cc1 | inactive | –
CCCc1cc(=O)[nH]c(NCc2ccc(Cl)cc2)n1 | inactive | –
CCSc1cnc(-c2ccccc2)n1CC | inactive | –
Clc1ccccc1Cn1nnc2c(N3CCCC3)ncnc21 | inactive | –
CCOC(=O)c1nn(-c2ccccc2C)c(=O)c(C#N)c1C | inactive | –
Cc1cc(O)c(C=Nc2cccc(Cl)c2)c(=O)o1 | inactive | –
COc1cccc(N2C(=O)C3ON(c4ccccc4)C(c4cccs4)C3C2=O)c1 (configuration not stated) | inactive | –
Cn1c(=O)c2c(nc(SCCCO)n2Cc2ccccc2Cl)n(C)c1=O | inactive | –
CSC1=NCCN1C(=O)Cc1cccs1 | inactive | –
CCCCCn1c(SCC(=O)OC)nc2c1c(=O)[nH]c(=O)n2C | inactive | –
COc1cc(OC)cc(C(=O)Nn2cc(C(=O)N3CCN(C)CC3)c3ccccc3c2=O)c1 | inactive | –
O=S(=O)(Nc1cc(Cl)ccc1N1CCCCC1)c1cccs1 | inactive | –
CCN(CCCNC(=O)CN(C)S(=O)(=O)c1cccc2nsnc12)c1cccc(C)c1 | inactive | –
COc1ccc(S(=O)(=O)N2CCSC2c2ccc(OC)c(OC)c2)cc1 (configuration not stated) | inactive | –
O=C1N(CN2CCN(c3cccc(Cl)c3)CC2)c2ccccc2C12OCCCO2 | inactive | –
CCOC(=O)N1CCC(NC(=O)c2cccc3c2C(=O)N(Cc2cccnc2)C3)CC1 | inactive | –

SMILES | outcome | EC50 [µM]
CC1(C)Cc2c(C#N)c(NC3CCCCC3)nc(-c3ccco3)c2CO1 | – | 2.6
COc1ccc(-c2coc3cc(O)cc(O)c3c2=O)cc1 | inactive | –
Cc1nc2sc3c(c2c(=O)[nH]1)CCC3 | inactive | –
COc1ccc(-n2nc3ccccc3n2)cc1 | inactive | –
C=CCn1c(=O)c2c(C)c(C)sc2n2c(Nc3ccc(OC)cc3)nnc12 | inactive | –
COc1ccc2[nH]c(=O)c(CN(Cc3cccs3)Cc3nnnn3C(C)(C)C)cc2c1 | inactive | –
CCCn1c2c(c(O)c(C(=O)NC)c1=O)CCCC2 | inactive | –
O=C(c1cccn2c(=O)c3cc(Cl)ccc3nc12)N1CCN(Cc2ccc3c(c2)OCO3)CC1 | inactive | –
c1ccc(C2=Nn3c(nnc3-c3ccncc3)SC2)cc1 | inactive | –
CCOC(=O)c1c(C2CC2)csc1NC(C)=O | inactive | –
N#CC1=C(N)n2c(s/c(=C\c3ccco3)c2=O)=C(C#N)C1c1ccco1 (configuration not stated) | inactive | –
CC(=O)c1cc(C#N)c(SCC(=O)OC(C)(C)C)nc1C | inactive | –
COc1ncnc2c1N=C1CC(C)(C)CC(N)=C1S2 | inactive | –
O=S1(=O)N=C(N2CCc3ccccc3C2)c2ccccc21 | inactive | –
CCCc1nc(N2CCOCC2)c(C#N)c2c1CCCC2 | inactive | –
CCOc1ncccc1C(=O)OCc1nnc(-c2ccccc2)o1 | inactive | –
O=C(CCSc1nc2ccccc2o1)N1CCOCC1 | inactive | –
Nc1nc(CN2CCN(c3ccccn3)CC2)nc(Nc2ccc(Cl)cc2)n1 | inactive | –
CCC(=O)NC(=Nc1nc2ccccc2s1)NC(=O)CC | inactive | –

From PubChem BioAssay AID858 (Vanderbilt High Throughput Screening Facility, 2007)
